For 31 compounds, IC50 results are on record in patent US12428413B2 (CHDI Foundation, Inc., priority 2019, dated 2025).

In assay [1] the test system is cellular ROCK activity (cofilin phosphorylation at Ser3) in A7r5 rat smooth muscle cells. Put plainly: Cellular ROCK activity: cofilin (Ser3) phosphorylation, In-Cell Western assay. It counts as cell-based. The settings on record: 1 hour compound incubation, phospho-cofilin (Ser3), read-out: CELL_IC50. The method, then: The potency of Rho-associated protein kinase (ROCK) inhibitors was quantified by measuring cofilin phosphorylation levels at Serine 3 (Ser3) as a measure of cellular ROCK activity by In-Cell Western assay. […] The assay plate was imaged and quantified on the Odyssey imager (LICOR Biosciences).
ROCK inhibitor compound plate preparation. […] Stock compounds and control are added directly to ECHO plate (Labcyte) by Janus.
A7r5 cell culture and plating. A7r5 cells were cultured according to standard cell culture protocols in A7r5 growth media (DMEM with Glutamax and 10% FBS). […] 45 μl of re-suspended A7r5 cells were plated at 3000 cells/well in a sterile, μclear, black, F-bottom, 384-well microplate (Greiner bio-one). Seeded cells allowed to settle in wells on the bench for 1 hour before incubation at 37° C., 5% CO2 overnight.
Assay reagent and antibody preparations. Wash buffer was prepared by addition of Tween-20 to Dulbecco's Phosphate Buffered Saline (DPBS) (1×) without calcium and magnesium to make 1% Tween-20 as final concentration. Blocking buffer was prepared by addition of TritonX-100 to SeaBlock buffer (ThermoFisher) to make 0.3% TritonX-100 as final concentration. […] Secondary antibody mix was prepared by diluting donkey anti-rabbit 800CW antibody (LICOR Biosciences) 1:1000 in SeaBlock buffer.
Assay procedure. Compound plate was diluted by addition of 19 μl/well compound dilution buffer (DMEM with Glutamax) using 125 μl 16-channel Matrix electronic pipette. 5 μl diluted compound was stamped from compound plate to assay plate containing A7r5 cells using Bravo (384-well head from Agilent) liquid handler and incubated at 37° C., 5% CO2 for 1 hour. Cells were fixed by addition of 5 μl 37% formaldehyde using 125 μl 16-channel Matrix electronic pipette and incubation for 20 min at room temperature. The assay plate was washed 5× with 60 μl/well wash buffer. […] Next, the assay plate was sealed, centrifuged at 1000 rpm for 5 seconds and incubated at 4° C. overnight on an orbital shaker at 300 rpm. […] The assay plate was centrifuged at 1000 rpm for 5 seconds and incubated on an orbital shaker at 300 rpm for 60 min at room temperature. Finally, assay plate was washed and wells left empty before measurement of 700 nm and 800 nm fluorescence intensities on Odyssey imager set at 4.0 mm focus offset.

The target in assay [2] is human catalytic domain ROCK II protein (amino acids 5-554) with a N-terminal GST tag (Homo sapiens, UniProt O75116). Put plainly: biochemical.

Structures are written as SMILES. Like-named read-outs stand apart in the source and are kept apart here. Bounds are passed on as bounds.

Sequence of human catalytic domain ROCK II protein (amino acids 5-554) with a N-terminal GST tag (O75116 5-554): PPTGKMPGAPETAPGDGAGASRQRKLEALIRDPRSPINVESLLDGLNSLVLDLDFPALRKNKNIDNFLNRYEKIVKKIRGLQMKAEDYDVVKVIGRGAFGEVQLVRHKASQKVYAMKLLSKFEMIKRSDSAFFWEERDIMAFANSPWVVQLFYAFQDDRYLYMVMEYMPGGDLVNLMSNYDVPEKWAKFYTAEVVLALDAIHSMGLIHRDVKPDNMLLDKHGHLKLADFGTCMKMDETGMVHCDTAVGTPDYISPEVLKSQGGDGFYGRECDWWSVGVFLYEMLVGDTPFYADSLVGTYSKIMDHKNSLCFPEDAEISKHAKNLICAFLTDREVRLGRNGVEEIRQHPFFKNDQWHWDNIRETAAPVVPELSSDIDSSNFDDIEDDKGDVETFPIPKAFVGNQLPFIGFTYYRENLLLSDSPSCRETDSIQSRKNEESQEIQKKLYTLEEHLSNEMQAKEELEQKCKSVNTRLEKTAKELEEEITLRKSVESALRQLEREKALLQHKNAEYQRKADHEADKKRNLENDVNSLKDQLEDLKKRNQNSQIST

On to `CC(NC(=O)N1CCN(c2ccncc2F)CC1)c1cccc(F)c1Cl` (single isomer, unassigned) [Example 23, N-(1-(2-Chloro-3-fluorophenyl)ethyl)-4-(3-fluoropyridin-4-yl)piperazine-1-carboxamide], for which the IC50 in assay [1] stood at 1440 nM; in assay [2], 88.8 nM.
Turning to `C[C@@H]1CN(c2ccncc2F)CCN1C(=O)N[C@H](C)c1cccc2occc12` [Example 142], the IC50 turned out to be 9.1 nM in assay [1] (Rattus norvegicus, A7R5, 1 h) and 2.6 nM in assay [2].
Taken in the same sequence, the figures for `C[C@@H](NC(=O)N1CCN(c2ccnc(F)c2)[C@@H](C)C1)c1cccc2c1CCO2` [Example 118] were 711 nM and 16.2 nM.
The corresponding values for `C[C@@H](NC(=O)N1CCN(c2ccncc2F)[C@@H](C)C1)c1cccc(OC(F)F)c1` [Example 145] are 413 nM and 12.4 nM.
Taken in the same sequence, the figures for `COc1ccc(F)c(CNC(=O)N2CCN(c3ccncc3F)C[C@H]2C)c1` [Example 55, (R)—N-(2-Fluoro-5-methoxybenzyl)-4-(3-fluoropyridin-4-yl)-2-methylpiperazine-1-carboxamide] were 602 nM and 23.3 nM.
Consider `COc1cccc([C@@H](C)NC(=O)N2CCN(c3ccncc3F)CC2)c1` [Example 16, (R)-4-(3-fluoropyridin-4-yl)-N-(1-(3-methoxyphenyl)ethyl)piperazine-1-carboxamide], for which the IC50 in assay [1] (Rattus norvegicus, A7R5, 1 h) amounted to 122 nM; in assay [2], 7.6 nM.
For `COc1ncccc1CNC(=O)N1CCN(c2ccncc2F)C[C@H]1C` [Example 56, (R)-4-(3-Fluoropyridin-4-yl)-N-((2-methoxypyridin-3-yl)methyl)-2-methylpiperazine-1-carboxamide], the IC50 in assay [1] (Rattus norvegicus, A7R5, 1 h) came out at 3050 nM; in assay [2], 360 nM.
For the compound `C[C@@H]1CN(c2ccncc2F)CCN1C(=O)NCc1cccc2c1OC(F)(F)O2` [Example 74, (R)—N-((2,2-Difluorobenzo[d][1,3]dioxol-4-yl)methyl)-4-(3-fluoropyridin-4-yl)-2-methylpiperazine-1-carboxamide Hemiformate], the IC50 in assay [1] (Rattus norvegicus, A7R5, 1 h) stood at 978 nM; in assay [2], 56.8 nM.
The corresponding values for `C[C@@H](NC(=O)N1CCN(c2ccncc2F)CC1)c1cccc2c1OCO2` [Example 27, (R)—N-(1-(Benzo[d][1,3]dioxol-4-yl)ethyl)-4-(3-fluoropyridin-4-yl)piperazine-1-carboxamide] are 87.7 nM and 5.8 nM.
Consider `Cc1cc2c([C@@H](C)NC(=O)N3CCN(c4ccncc4F)CC3)cccc2o1` [Example 31, (R)-4-(3-Fluoropyridin-4-yl)-N-(1-(2-methylbenzofuran-4-yl)ethyl)piperazine-1-carboxamide], for which the IC50 amounted to 189 nM in assay [1] (Rattus norvegicus, A7R5, 1 h) and 3.7 nM in assay [2].
Turning to `C[C@@H]1CN(c2ccnc(F)c2)CCN1C(=O)NCc1cccc2c1OC(F)(F)O2` [Example 5, (R)—N-((2,2-Difluorobenzo[d][1,3]dioxol-4-yl)methyl)-4-(2-fluoropyridin-4-yl)-2-methylpiperazine-1-carboxamide], the IC50 in assay [2] stood at 864 nM.
For the compound `COc1cccc([C@@H](C)OC(=O)N2CCN(c3ccncc3F)C[C@H]2C)c1` [Example 46, (R)-1-(3-Methoxyphenyl)ethyl (R)-4-(3-fluoropyridin-4-yl)-2-methylpiperazine-1-carboxylate], the IC50 in assay [1] (Rattus norvegicus, A7R5, 1 h) is 295 nM; in assay [2] it was 3.9 nM.
Taken in the same sequence, the figures for `[2H]C([2H])([2H])Oc1cccc([C@H](NC(=O)N2CCN(c3ccncc3F)C[C@H]2C)C([2H])([2H])[2H])c1` [Example 81, (R)-4-(3-Fluoropyridin-4-yl)-N—((R)-1-(3-(methoxy-d3)phenyl)ethyl-2,2,2-d3)-2-methylpiperazine-1-carboxamide] were 8.1 nM and 3.7 nM.
On to `[2H]C([2H])([2H])Oc1cccc([C@@H](C)NC(=O)N2CCN(c3ccncc3F)C[C@H]2C)c1` [Example 82, (R)-4-(3-Fluoropyridin-4-yl)-N—((R)-1-(3-(methoxy-d3)phenyl)ethyl)-2-methylpiperazine-1-carboxamide], for which the IC50 worked out at 9.1 nM in assay [1] (Rattus norvegicus, A7R5, 1 h) and 2.8 nM in assay [2].
As to `C[C@H]1CN(C(=O)NCc2cccc(OC(F)F)c2)CCN1c1ccnc(F)c1` [Example 122], in assay [2], the IC50 is 802 nM.
Regarding `COc1cccc([C@@H](C)OC(=O)N2CCN(c3ccnc(F)c3)C[C@H]2C)c1` [Example 2, (R)-1-(3-Methoxyphenyl)ethyl (R)-4-(2-fluoropyridin-4-yl)-2-methylpiperazine-1-carboxylate], the IC50 is 1690 nM in assay [1] (Rattus norvegicus, A7R5, 1 h) and 30.7 nM in assay [2].
Taken in the same sequence, the figures for `COc1cccc(CN2C[C@H]3CN(c4ccncc4F)CCN3C2=O)c1` [Example 87, (R)-7-(3-Fluoropyridin-4-yl)-2-(3-methoxybenzyl)hexahydroimidazo[1,5-a]pyrazin-3(2H)-one] were at least 5000 nM and 1490 nM.
The corresponding values for `C[C@@H]1CN(c2ccncc2F)CCN1C(=O)N[C@H](C)c1cccn2nccc12` [Example 61, (R)-4-(3-Fluoropyridin-4-yl)-2-methyl-N—((R)-1-(pyrazolo[1,5-a]pyridin-4-yl)ethyl)piperazine-1-carboxamide] are 13.8 nM and 2.4 nM.
Taken in the same sequence, the figures for `Cc1cnc2cccc([C@@H](C)NC(=O)N3CCN(c4ccncc4F)CC3)n12` [Example 34, (R)-4-(3-fluoropyridin-4-yl)-N-(1-(3-methylimidazo[1,2-a]pyridin-5-yl)ethyl)piperazine-1-carboxamide] were 104 nM and 7.5 nM.
As to `COc1cccc(CN2CC[C@@H]3CN(c4ccncc4F)CCN3C2=O)c1` [Example 89, (R)-2-(3-Fluoropyridin-4-yl)-7-(3-methoxybenzyl)octahydro-6H-pyrazino[1,2-c]pyrimidin-6-one], the IC50 in assay [1] (Rattus norvegicus, A7R5, 1 h) came out at 1150 nM; in assay [2] it was 55.1 nM.
Taken in the same sequence, the figures for `[2H]C([2H])([2H])Oc1cccc([C@H](NC(=O)N2CCN(c3ccncc3F)CC2)C([2H])([2H])[2H])c1` [Example 131] were 152 nM and 8 nM.
Taken in the same sequence, the figures for `C[C@H](NC(=O)N1CCN(c2ccncc2F)C[C@H]1C)c1cccn2nccc12` [Example 62, (R)-4-(3-Fluoropyridin-4-yl)-2-methyl-N—((S)-1-(pyrazolo[1,5-a]pyridin-4-yl)ethyl)piperazine-1-carboxamide] were 490 nM and 108 nM.
The corresponding values for `C[C@@H]1CN(c2ccncc2F)CCN1C(=O)N[C@H](C)c1cccc(OC(F)F)c1` [Example 136] are 53.1 nM and 3.8 nM.
Consider `C[C@@H]1CN(c2ccnc(F)c2)CCN1C(=O)NCc1cccc2c1OCO2` [Example 6, (R)—N-(Benzo[d][1,3]dioxol-4-ylmethyl)-4-(2-fluoropyridin-4-yl)-2-methylpiperazine-1-carboxamide], for which the IC50 in assay [2] was determined as 117 nM.
Still for that read-out and setting: for `C[C@@H]1CN(c2ccncc2F)CCN1C(=O)N[C@H](C)c1cccc2c1N(C)CCO2` [Example 143] the value was 3070 nM; for `Cc1cnc2cccc([C@H](C)NC(=O)N3CCN(c4ccncc4F)CC3)n12` [Example 35, (S)-4-(3-fluoropyridin-4-yl)-N-(1-(3-methylimidazo[1,2-a]pyridin-5-yl)ethyl)piperazine-1-carboxamide], 142 nM.
On the same count and under the same terms, for `COc1cccc(CNC(=O)N2CCN(c3ccnc(F)c3)[C@@H](C)C2)c1` [Example 121] the value was 102 nM.
In the case of `C[C@H](NC(=O)N1CCN(c2ccncc2F)C[C@H]1C)c1cccc2nn(C)cc12` [Example 72, (R)-4-(3-Fluoropyridin-4-yl)-2-methyl-N—((S)-1-(2-methyl-2H-indazol-4-yl)ethyl)piperazine-1-carboxamide], the IC50 in assay [2] came out at 86.6 nM.
Compound `C[C@@H]1CN(c2ccncc2F)C[C@@H](C)N1C(=O)NCc1ccccc1Cl` [Example 92, (2R,6R)—N-(2-Chlorobenzyl)-4-(3-fluoropyridin-4-yl)-2,6-dimethylpiperazine-1-carboxamide] gave an IC50 in assay [2] of 563 nM.
With `COc1cc(F)cc(CN2C[C@H]3CN(c4ccncc4F)CCN3C2=O)c1` [Example 85, (R)-2-(3-Fluoro-5-methoxybenzyl)-7-(3-fluoropyridin-4-yl)hexahydroimidazo[1,5-a]pyrazin-3(2H)-one], in assay [2], the IC50 is 4680 nM.
In turn, `O=C(NCc1cccc(OC(F)F)c1)N1CCN(c2ccnc(F)c2)CC1` [Example 103] yielded an IC50 in assay [2] of 1060 nM.
